Read-outs that look alike come from different tables or passages of the source.
Tests used:
vaccinia virus WR [1] = format: cell-based
vaccinia virus WR [2] = test: microbe, parasite or virus in culture; format: cell-based
BS-C-1 cells = test: WST-1 cytotoxicity assay; settings: for CC50: Table 4; for tox 20 h TC50 / tox 72 h TC50 / tox 120 h TC50: Table 6
vaccinia virus WR [3] = test: microbe, parasite or virus in culture; format: cell-based; remark: listed apart in the source
WST-1 cytotoxicity assay = settings: African green monkey, BS-C-1 cells
[4] = biological target: vaccinia virus DNA synthesis (viral DNA polymerase and its associated factors) (Vaccinia virus, UniProt P06856); format: biochemical
[5] = Solubility in cell growth medium by light scattering; settings: concentrations of the activity assays
Procedure: These 16 compounds were tested for cell protection and cytotoxicity over longer times (48 h and 72 h). […] The solubility of the 16 compounds was verified in cell growth medium over the range of concentrations used in the activity assays.

vaccinia virus = format: cell-based
[6] = Orthopoxvirus vaccinia, 20 h, read-out: Cell Protection 20 h EC50
[7] = read-out: Cytotoxicity 20 h CC50, 20 h
[8] = read-out: Cytotoxicity 72 h CC50, 72 h
[9] = read-out: Cytotoxicity 120 h CC50, 120 h
[10] = Orthopoxvirus vaccinia, BSC-1, 20 h, read-out: cell prot EC50
[11] = Orthopoxvirus vaccinia, 20 h, read-out: Plaque Reduction 20 h EC50
[12] = Orthopoxvirus vaccinia, BSC-1, 20 h, read-out: plaque red EC50
[13] = read-out: DNA Synthesis Inhibition IC50

Structure (SMILES) | Effect of dsDNA (vaccinia virus WR [1]) | EC50 (vaccinia virus WR [2]; [6]) [µM] | CC50 (BS-C-1 cells; [7]) [µM] | tox 20 h TC50 (BS-C-1 cells; 20 h) [µM] | tox 72 h TC50 (BS-C-1 cells; 72 h) [µM] | tox 120 h TC50 (BS-C-1 cells; 120 h) [µM] | CC50 (BS-C-1 cells; [9]) [µM] | trapped by dsDNA (vaccinia virus WR [1]) | Selectivity Index SI (vaccinia virus WR [2]) | EC50 (vaccinia virus WR [2]; [10]) [µM] | EC50 (vaccinia virus WR [3]; [11]) [µM] | EC50 (vaccinia virus WR [3]; [12]) [µM] | IC50 [4, 13] [µM] | IC50 ([4]; read-out: DNA synth IC50) [µM] | selectivity index (vaccinia virus WR [2]) | other results
C[C@@]1(CO)[C@H](O)CC[C@@]2(C)[C@H]1CC[C@H]1C[C@@H]3C[C@@]12CC[C@]3(O)CO [Aphidicolin, reference compound] | No | 18 | – | – | – | – | – | – | – | – | – | – | – | – | – | –
Nc1ccn([C@@H]2O[C@H](CO)[C@@H](O)[C@@H]2O)c(=O)n1 [Ara-C, reference compound] | Yes | – | 16 | – | – | – | – | – | – | – | – | – | – | – | – | EC50 (vaccinia virus WR [2]; read-out: Cell Protection 20 h EC50): 0.24 µM; EC50 (vaccinia virus WR [3]; read-out: Plaque Reduction 20 h EC50): 0.5 µM
Nc1ccn(C[C@@H](CO)OCP(=O)(O)O)c(=O)n1 [Cidofovir, reference compound] | No | 132 | – | >500 | >500 | 300 | 300 | no | >18.9 | 132 | 50 | 50 | – | – | – | CC50 (BS-C-1 cells; [8]): > 500 µM; CC50 at 20 h (WST-1 cytotoxicity assay): > 2500 µM
COC(=O)c1cccc2c1-c1ccccc1/C2=N\O [Compound 1] | No | 9.6 | 127 | 127 | – | 20 | 20 | no | 13.2 | 9.6 | 10 | 10 | 108 | 108 | 13.2 | selectivity index over 72 h (vaccinia virus WR [2]): 3.2
CCOC(=O)c1c(NC(=O)/C=C/C(=O)O)sc(C)c1-c1ccccc1 [Compound 2] | No | 30 | 159 | 159 | – | – | – | no | – | 30 | 25 | 25 | 374 | 374 | – | –
CCn1c2ccccc2c2ccc(/C=N/n3cnnc3)cc21 [Compound 3] | No | 50 | > 200 | >200 | 36 | 3 | 3 | no | >4.0 | 50 | 50 | 50 | 131 | 131 | >4.0 | CC50 (BS-C-1 cells; [8]): 36 µM
Cc1csc2c(N3CCN(C(=O)NC(C)(C)C)CC3)ncnc12 [Compound 4] | No | 50 | 157 | 157 | – | 40 | 40 | no | 3.1 | 50 | 15 | 15 | 12 | 12 | 3.1 | –
CCNc1nc(SCc2ccc(Cl)cc2)nc2sc3c(c12)CCN(C)C3 [Compound 5] | No | 45 | 115 | 155 | – | 5 | 5 | no | 2.6 | 42 | 15 | 15 | 129 | 129 | 2.6 | –
Cc1cc(/N=C/c2cc(Cl)cc(Cl)c2O)no1 [Compound 6] | No | 95 | > 200 | >200 | 50 | 20 | 20 | no | >2.1 | 95 | 75 | 75 | 30 | 30 | >2.1 | CC50 at 72 h (WST-1 cytotoxicity assay): ~50 µM
Cc1c(/N=C/c2cc(Br)cc(Br)c2Br)cccc1C(=O)O [Compound 7] | No | 100 | – | >200 | 38 | 20 | – | no | >2 | 100 | 75 | 75 | 26 | 26 | >2 | CC50 at 20 h (WST-1 cytotoxicity assay): > 200 µM; CC50 at 72 h (WST-1 cytotoxicity assay): 38 µM; CC50 at 120 h (WST-1 cytotoxicity assay): 20 µM
O=C(Nc1ccccc1C(=O)O)OCC1c2ccccc2-c2ccccc21 [Compound 9] | No | 104 | > 200 | >200 | 40 | 20 | 20 | no | >1.9 | 104 | 75 | 75 | 26 | 26 | >1.9 | CC50 at 72 h (WST-1 cytotoxicity assay): 30 to 50 µM
Cc1ccc2c(Sc3ccc(Cl)cc3)c(C(=O)O)[nH]c2c1 [Compound 11] | No | 130 | > 200 | >200 | 174 | 120 | 120 | no | >1.5 | 130 | 75 | 75 | 43 | 43 | >1.5 | CC50 (BS-C-1 cells; [8]): 174 µM
O=C(O)Cn1c2ccc(Cl)cc2c2nc3ccccc3nc21 [Compound 13] | No | 100 | > 100 | >100 | 13 | 30 | 30 | no | – | 100 | 50 | 50 | – | – | – | CC50 (BS-C-1 cells; [8]): 13 µM; Solubility in cell growth medium [5]: just slightly insoluble at the EC50
N=C1/C(=C/c2coc3ccccc3c2=O)C(=O)N=C2SC=NN12 [Compound 14] | No | 188 | > 200 | >200 | >200 | 50 | 50 | no | >1 | 188 | 150 | 150 | 75 | 75 | >1 | CC50 (BS-C-1 cells; [8]): > 200 µM
CC(=O)n1c2ccccc2c2nc(C)sc21 [Compound 15] | No | 236 | > 200 | >200 | >200 | 75 | 75 | no | >1 | 236 | 100 | 100 | 111 | 111 | >1 | CC50 (BS-C-1 cells; [8]): > 200 µM
O=C1/C(=C/C2CCCO2)CC/C1=C\C1CCCO1 (stereo not shown) [Compound 16] | No | 100 | > 100 | >100 | >100 | 50 | – | no | >1 | 100 | 50 | 50 | 239 | 239 | >1 | Solubility in cell growth medium [5]: just slightly insoluble at the EC50
CC[n+]1c(-c2ccccc2)c2cc(N)ccc2c2ccc(N)cc21 [Ethidium, reference compound] | Yes | 100 | – | – | – | – | – | – | – | – | – | – | – | – | – | –
CCN(CC)CCCC(C)Nc1c2ccc(Cl)cc2nc2ccc(OC)cc12 (stereo not shown) [Quinacrine, reference compound] | Yes | 17 | – | – | – | – | – | – | – | – | – | – | – | – | – | –
[H]/N=C1/SC(=Cc2ccco2)C(=O)N1c1nccs1 [XXXII, (E)-5-(furan-2-ylmethylene)-2-imino-3-(thiazol-2-yl)thiazolidin-4-one] | – | – | – | – | – | – | – | – | – | – | – | – | – | – | – | Blocking the replication of vaccinia virus in cells (vaccinia virus): effective in blocking the replication of vaccinia virus in cells
COc1ccc(Nc2cc(C(F)(F)F)ccc2Cl)c(C(=O)O)c1 [XXXIV, 2-(2-chloro-5-(trifluoromethyl)phenylamino)-5-methoxybenzoic acid] | – | – | – | – | – | – | – | – | – | – | – | – | – | – | – | Blocking the replication of vaccinia virus in cells (vaccinia virus): effective in blocking the replication of vaccinia virus in cells
O=C1CSC(=S)N1/N=C/c1ccc(Cl)c([N+](=O)[O-])c1 [XXXIX, (E)-3-(4-chloro-3-nitrobenzylideneamino)-2-thioxothiazolidin-4-one] | – | – | – | – | – | – | – | – | – | – | – | – | – | – | – | Blocking the replication of vaccinia virus in cells (vaccinia virus): effective in blocking the replication of vaccinia virus in cells
CN1CCc2c(-c3cccs3)nc(OCc3ccccc3Br)c(C#N)c2C1 [XXXV, 3-(2-bromobenzyloxy)-6-methyl-1-(thiophen-2-yl)-5,6,7,8-tetrahydro-2,6-naphthyridine-4-carbonitrile] | – | – | – | – | – | – | – | – | – | – | – | – | – | – | – | Blocking the replication of vaccinia virus in cells (vaccinia virus): effective in blocking the replication of vaccinia virus in cells
